ChEMBL document CHEMBL1201862, “PubChem BioAssay data set” (2004)
Calls of active or inactive are those of the source. Rule as the data show it, for most assays here: actives have a measured EC50 and inactives only a lower limit.

Key:
INS1 = assay: INS-1E survival protection against cytokine death – cell-based, luminescence, retest, dose response (AID 449756); format: functional; settings: Rattus norvegicus;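 also: cell death triggered by IL-1 beta plus TNF-alpha plus IFN-gamma mixture; protective hits raise ATP signal compared with cytokine alone wells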
[1] = target: Luciferin 4-monooxygenase (Photinus pyralis, UniProt P08659); assay: inhibition of purified Photinus pyralis luciferase – biochemical, luminescence, dose response (AID 1891)
[2] = Luminescence Cell-Based Dose Confirmation HTS to Identify Inhibitors of Platelet Dense Granule Release. [Related pubchem assays: 1663 (Primary HTS), 1678 (Summary of Project)]; format: functional
[3] = target: T1, Ubiquitin-conjugating enzyme E2 N (Homo sapiens, UniProt P61088); format: functional;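 also: Dose-response confirmation in a TR-FRET assay detecting UBC13-driven polyubiquitin chain formation, inhibition measured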
T1 sequence (P61088 whole entry): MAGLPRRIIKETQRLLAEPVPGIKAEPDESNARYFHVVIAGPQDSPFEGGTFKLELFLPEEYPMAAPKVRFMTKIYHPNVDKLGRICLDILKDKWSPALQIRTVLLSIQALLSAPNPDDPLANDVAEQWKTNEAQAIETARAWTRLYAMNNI

[4] = intracellular Trypanosoma cruzi inhibitors in host cells – cell-based, plate reader, cherry-pick samples, set 3, dose response (AID 651818); format: functional;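 also: compounds incubated with infected cells for about four days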
[5] = DRD fibroblast viability loss – cell-based, non-viral oncogenic, luminescence, dose response (AID 1934); format: functional; settings: Homo sapiens
[6] = NIH-3T3 fibroblast cytotoxicity, dose response, cytotoxicity control, cell-based, fluorescence, Alamar Blue, secondary assay (AID 2327); format: functional;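 also: NIH-3T3 mouse fibroblasts cultured with fluconazole at 8 µg/mL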
[7] = fluconazole-exposed Candida albicans growth modulators – fluorescence, retest, confirmation (AID 2467); format: functional, cell-based
BJ [8] = assay: BJ-TERT-LT-ST fibroblast viability loss – cell-based, RAS-independent, luminescence, dose response (AID 1935); format: functional; settings: Homo sapiens;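 also: BJ fibroblasts immortalized with TERT plus LT and ST oncogenes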
BJ [9] = assay: cells; format: functional, cell-based; settings: Homo sapiens
BJ [10] = assay: BJ-TERT fibroblast viability loss – cell-based, RAS-independent, luminescence, dose response (AID 1933); format: functional; settings: Homo sapiens
Protein skinhead-1 = target: T2, Protein skinhead-1 (Caenorhabditis elegans, UniProt P34707); format: functional
T2 sequence (P34707 whole entry): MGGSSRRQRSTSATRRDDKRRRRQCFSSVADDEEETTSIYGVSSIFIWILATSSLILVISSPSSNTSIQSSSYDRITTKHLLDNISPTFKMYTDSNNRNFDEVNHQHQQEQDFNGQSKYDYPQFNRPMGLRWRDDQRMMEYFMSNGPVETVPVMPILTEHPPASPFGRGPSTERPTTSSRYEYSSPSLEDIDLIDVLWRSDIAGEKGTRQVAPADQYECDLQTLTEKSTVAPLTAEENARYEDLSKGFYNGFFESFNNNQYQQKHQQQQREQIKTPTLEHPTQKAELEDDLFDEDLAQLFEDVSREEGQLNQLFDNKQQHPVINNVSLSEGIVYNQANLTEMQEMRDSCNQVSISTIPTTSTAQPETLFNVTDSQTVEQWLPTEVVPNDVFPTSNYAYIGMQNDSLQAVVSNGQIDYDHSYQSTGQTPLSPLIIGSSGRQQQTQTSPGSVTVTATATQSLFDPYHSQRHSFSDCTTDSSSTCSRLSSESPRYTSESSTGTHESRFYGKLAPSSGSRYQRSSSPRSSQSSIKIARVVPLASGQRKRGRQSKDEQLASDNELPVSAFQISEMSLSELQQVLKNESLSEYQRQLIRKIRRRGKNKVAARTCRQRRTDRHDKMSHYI

[11] = target: Heat shock protein HSP 90-alpha (Homo sapiens, UniProt P07900); format: functional, organism-based
[12] = target: T3, Heat shock factor protein 1 (Mus musculus, UniProt P38532); assay: enhancement of HSF1-driven luciferase signal – cell-based, NIH3T3, luminescence, dose retest, confirmation (AID 435004); format: functional;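 also: stress induced by proteasome inhibitor MG132 added 30 min after compound; luciferase reporter driven by HSF1 response element in NIH3T3 cells; actives raise luminescence as potentiators of the MG132 stress response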
T3 sequence (P38532 whole entry): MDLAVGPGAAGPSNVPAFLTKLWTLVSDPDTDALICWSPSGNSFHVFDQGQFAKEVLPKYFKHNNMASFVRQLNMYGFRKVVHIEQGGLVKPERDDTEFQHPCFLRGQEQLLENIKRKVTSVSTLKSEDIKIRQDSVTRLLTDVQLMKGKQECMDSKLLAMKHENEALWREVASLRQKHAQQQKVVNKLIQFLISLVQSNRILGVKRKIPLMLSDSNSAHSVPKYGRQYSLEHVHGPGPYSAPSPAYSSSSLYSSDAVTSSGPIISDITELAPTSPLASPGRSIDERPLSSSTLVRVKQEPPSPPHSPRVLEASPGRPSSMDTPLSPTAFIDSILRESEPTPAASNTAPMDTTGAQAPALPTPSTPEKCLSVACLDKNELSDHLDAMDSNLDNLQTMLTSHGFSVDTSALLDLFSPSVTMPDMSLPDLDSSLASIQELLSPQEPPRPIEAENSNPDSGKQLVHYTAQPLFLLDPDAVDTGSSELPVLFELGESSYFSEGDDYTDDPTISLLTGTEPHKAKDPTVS

Chain of Luciferin 4-monooxygenase (P08659 whole entry): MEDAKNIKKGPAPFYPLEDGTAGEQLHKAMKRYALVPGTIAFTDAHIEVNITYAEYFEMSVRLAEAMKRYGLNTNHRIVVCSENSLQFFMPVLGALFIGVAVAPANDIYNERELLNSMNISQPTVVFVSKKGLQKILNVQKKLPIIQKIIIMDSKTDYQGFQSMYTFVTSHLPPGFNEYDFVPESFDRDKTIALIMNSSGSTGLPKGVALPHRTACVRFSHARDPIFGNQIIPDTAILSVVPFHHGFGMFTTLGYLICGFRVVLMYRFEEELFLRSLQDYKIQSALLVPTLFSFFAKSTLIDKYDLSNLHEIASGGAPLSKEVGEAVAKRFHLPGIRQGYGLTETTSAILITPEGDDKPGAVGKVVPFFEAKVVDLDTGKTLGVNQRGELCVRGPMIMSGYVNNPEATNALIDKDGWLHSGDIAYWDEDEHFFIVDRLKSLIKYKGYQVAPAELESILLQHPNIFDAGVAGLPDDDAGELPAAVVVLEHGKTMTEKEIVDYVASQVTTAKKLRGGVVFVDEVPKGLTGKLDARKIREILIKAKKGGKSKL

Cc1ccc(C(=O)N/C(=C\c2ccc(-c3ccccc3[N+](=O)[O-])o2)C(=O)NCCCN2CCOCC2)cc1
AC50 (INS1): 6.33 µM (active)

CCN(CC)S(=O)(=O)c1cc(OCC(N)=O)c(C)cc1Cl
EC50 [1]: > 112 µM (not active)
EC50 [2]: > 112 µM (not active)

CCc1ccc(-c2cc3c(=O)n(CC(=O)NCCCN4CCC(Cc5ccccc5)CC4)nc(C)n3n2)cc1
IC50 [3]: > 20 µM (inactive)

C[C@H](CO)N1C[C@H](C)[C@H](CN(C)C(=O)Nc2ccc(C(F)(F)F)cc2)Oc2c(NC(=O)c3nc4ccccc4s3)cccc2C1=O
AC50 [4]: 2.35 µM (active)

COc1cc(/C=N/NC(N)=O)ccc1OCC(=O)N1C(C)CCCC1C (stereo unspecified)
EC50 [1]: > 112 µM (not active)
EC50 [2]: 5.74 µM (active)

Cc1noc(/C=C/c2ccccn2)c1[N+](=O)[O-]
EC50 [5]: 9.44 µM (active)
EC50 [6]: 3.04 µM (inconclusive)
EC50 [7]: 2.97 µM (active)
EC50 (BJ [8]): 9.6 µM (active)
EC50 (BJ [9]): 24.5 µM (inconclusive)
EC50 (BJ [10]): 8.5 µM (active)

O=C(CN1CCOCC1)c1cccc2ccccc12
IC50 (Protein skinhead-1): > 100 µM (inactive)

CCOC(=O)c1ccc(N2C(=O)CC(N3CCC(Nc4ccc(F)cc4)CC3)C2=O)cc1 (stereo unspecified)
AC50 [11]: 3.01 µM (active)
EC50 [12]: > 260 µM (inactive)

Cc1ccc(C(=O)NCCCNCCCN(C)C)cn1
IC50 [3]: > 20 µM (inactive)

CCOc1ncccc1C(=O)N1CCN(c2cccc(C)c2C)CC1
EC50 [5]: 0.458 µM (active)
EC50 (BJ [8]): 0.349 µM (inconclusive)
EC50 (BJ [9]): 37.3 µM (inconclusive)
EC50 (BJ [10]): 0.541 µM (active)

CSc1nsc(SCc2ccc(F)cc2)n1
IC50 (Protein skinhead-1): 18.9 µM (active)

CSc1ccc(/C=C2\C(=N)N3N=C(CC(=O)N4CCOCC4)SC3=NC2=O)cc1
EC50 [1]: > 112 µM (not active)
EC50 [2]: > 112 µM (not active)

CCn1c(CNc2ccc(Cl)cc2)nnc1SCc1ccccc1
AC50 [11]: 1.57 µM (active)

CSc1cccc(NC(=O)c2cccc3cccnc23)c1
IC50 (Protein skinhead-1): 14.7 µM (active)

O=C(c1nc[nH]c1C(=O)N1CCc2ccccc2C1)N1CCc2ccccc2C1
IC50 (Protein skinhead-1): > 100 µM (inactive)

CN(C)CCCNC(=O)C(=O)NCC1OCCN1S(=O)(=O)c1cccs1 (stereo unspecified)
IC50 [3]: > 20 µM (inactive)

CCOC(=O)c1ccccc1NC(=O)Cc1ccccc1OC
IC50 (Protein skinhead-1): > 100 µM (inactive)

COc1ccc(S(=O)(=O)Nc2ccc3c(c2)CC(=O)N([C@H](C)CO)C[C@@H](C)[C@H](CN(C)CC2CCCCC2)O3)cc1
AC50 [4]: 2.97 µM (active)

N#Cc1ccsc1NC(=O)C1CCN(C(=O)c2ccc(F)cc2)CC1
IC50 [3]: > 20 µM (inactive)
